System: 299254-011-R-J1-PDC complex spheroid viability
Assay: Anticancer human tumor 299254-011-R-J1-PDC patient-derived melanoma cell line growth inhibition [POLQ]
Conditions: for IC50: curve of first compound; for viability, T/C: stronger effect = lower value
Protocol: Multicellular complex tumor spheroid response to Polymerase (POL) inhibitors (novobiocin, ART-558, RP6685) in combination with a variety of drugs and investigational agents in selected tumor cell lines
The POL inhibitors (novobiocin, ART-558, and RP6685) were evaluated both individually and in combination with standard of care and investigational anticancer small molecules within a complex spheroid model of solid tumors. . Complex spheroids include a stromal component modeled by human endothelial cells (HUVEC) and fibroblasts modeled by human mesenchymal stem cells (MSCs). The concentration ranges selected for each drug and investigational agent were based upon clinically achievable concentrations if the clinical Cmax of the agent was known.
Compounds. The drugs and investigational agents: novobiocin (NSC847541), ART-558 (NSC835418), RP-6685 (NSC848927), peposertib (NSC802822), ceralasertib (NSC780249), elimusertib (NSC800525), camonsertib (NSC841442), AZD-1390 (NSC803789), olaparib (NSC753686), talazoparib (NSC767125), rucaparib (NSC756644), sotorasib (NSC818433), MRTX-1133 (NSC836407), SN-38 (NSC673596), topotecan (NSC609699), epotoside (NSC141540), doxorubicin (NSC123127), gemcitabine (NSC613327), 5-fluorouracil (NSC19893), paclitaxel (NSC125973), vemurafenib (NSC761431), MSA-2 (NSC828583), SN-011 (NSC837082), adavosertib (NSC754352), prexasertib (NSC758257), carboplatin (NSC241240) and oxaliplatin (NSC266046), were obtained from the National Cancer Institute (NCI) Developmental Therapeutics Program Chemical Repository (21). The FDA-approved anticancer drug set is available from the Developmental Therapeutics Program at https://dtp.cancer.gov/organization/dscb/obtaining/. […] The stock solutions were prepared in dimethyl sulfoxide (DMSO, Sigma-Aldrich, St. Louis, MO, cat. D2650), except for the platinum compounds which were prepared in saline (Quality Biological, Gaithersburg, MD, cat. 114-055-101), at 800-fold the tested concentration and stored at -70 degrees C prior to their use. All drugs and investigational agents were tested over a range starting from a high concentration at or near the clinical Cmax and decreasing in half-log increments. If the clinical Cmax for an agent had not been determined, the highest concentration tested was 10 microM, except for SN-38, which was tested at a high concentration of 1 microM.
Cell Culture. All cells were maintained in an incubator at 37 degrees C and 5% CO2 with 95% humidity. The PDC lines were cultured according to standard operating procedures established by the NCI PDMR (https://pdmr.cancer.gov). Table 3 of the manuscript, lists the cell lines along with the number of the three cell types plated to form the mct-spheroids and media for tumor cell growth. After thawing, all PDC lines, except 997537-175-T-J1-PDC and 415267-285-R-J2-PDC, were cultured in Matrigel-coated flasks prepared with a working solution of 1X Ham's F-12 nutrient mix, without supplementation (Thermo Fisher Scientific, cat. 11765054), 100 U/mL penicillin-streptomycin (Thermo Fisher Scientific, cat. 15140122), and 2.5% Matrigel (Corning Inc., Corning, NY, cat. 354248) for the first three passages. The two PDC lines 997537-175-T-J1-PDC and 415267-285-R-J2-PDC were cultured on uncoated flasks. The 857933-349-R-J2-PDC line was cultured in 6C/Colon 1B media containing advanced DMEM/F-12 (Thermo Fisher Scientific, cat. 12634028), 10 mM HEPES (Thermo Fisher Scientific, cat. 15630080), 1X GlutaMAX supplement (Thermo Fisher Scientific, cat. 35050061), 0.1 mg/mL primocin (InvivoGen, San Diego, CA, cat. ant-pm-2), 10% defined fetal bovine serum, heat inactivated (HyClone Laboratories Inc., Logan, UT, cat. SH30070.03HI), 50% L-WRN conditioned media (ATCC, cat. CRL-3276), 1.25 mM N-Acetyl-L-cysteine (Sigma-Aldrich, cat. A9165), 10 mM nicotinamide (Sigma-Aldrich, cat. N0636), 1X B-27 supplement (Thermo Fisher Scientific, cat. 17504044), 1X N-2 supplement (Thermo Fisher Scientific, cat. […]

[1] = second compound 0.0316 µM, first compound 0.0316 µM
[2] = second compound 0.0316 µM, first compound 0.1 µM
[3] = second compound 0.0316 µM, first compound 0.316 µM
[4] = second compound 0.0316 µM, first compound 1 µM
[5] = second compound 0.0316 µM, first compound 3.16 µM
[6] = second compound 0.0316 µM, first compound 10 µM
[7] = second compound 0.1 µM, first compound 0.0316 µM
[8] = second compound 0.1 µM, first compound 0.1 µM
[9] = second compound 0.1 µM, first compound 0.316 µM
[10] = second compound 0.1 µM, first compound 1 µM
[11] = second compound 0.1 µM, first compound 3.16 µM
[12] = second compound 0.1 µM, first compound 10 µM
[13] = second compound 0.316 µM, first compound 0.0316 µM
[14] = second compound 0.316 µM, first compound 0.1 µM
[15] = second compound 0.316 µM, first compound 0.316 µM
[16] = second compound 0.316 µM, first compound 1 µM
[17] = second compound 0.316 µM, first compound 3.16 µM
[18] = second compound 0.316 µM, first compound 10 µM
[19] = second compound 1 µM, first compound 0.0316 µM
[20] = second compound 1 µM, first compound 0.1 µM
[21] = second compound 1 µM, first compound 0.316 µM
[22] = second compound 1 µM, first compound 1 µM
[23] = second compound 1 µM, first compound 3.16 µM
[24] = second compound 1 µM, first compound 10 µM
[25] = second compound 3.16 µM, first compound 0.0316 µM
[26] = second compound 3.16 µM, first compound 0.1 µM
[27] = second compound 3.16 µM, first compound 0.316 µM
[28] = second compound 3.16 µM, first compound 1 µM
[29] = second compound 3.16 µM, first compound 3.16 µM
[30] = second compound 3.16 µM, first compound 10 µM
[31] = second compound 10 µM, first compound 0.0316 µM
[32] = second compound 10 µM, first compound 0.1 µM
[33] = second compound 10 µM, first compound 0.316 µM
[34] = second compound 10 µM, first compound 1 µM
[35] = second compound 10 µM, first compound 3.16 µM
[36] = second compound 10 µM, first compound 10 µM
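Note: spheroids exposed to drugs for one week before measurement.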
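Throughout, for viability, T/C: percent viability relative to DMSO vehicle control taken as 100%.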

For `C#Cc1c(F)ccc2cc(O)cc(-c3ncc4c(N5CC6CCC(C5)N6)nc(OCC56CCCN5CC(F)C6)nc4c3F)c12` (centres undefined) + COC1C(OC(N)=O)C(O)C(Oc2ccc3c(O)c(NC(=O)c4ccc(O)c(CC=C(C)C)c4)c(=O)oc3c2C)OC1(C)C, the IC50 (second compound 0.0316 µM) was > 10000 nM, the IC50 (second compound 0.1 µM) was > 10000 nM and the IC50 (second compound 0.316 µM) was > 10000 nM. For the same compound, the IC50 (second compound 1 µM) was > 10000 nM, the IC50 (second compound 3.16 µM) was > 10000 nM and the IC50 (second compound 10 µM) was > 10000 nM. The viability, T/C [1] was 87.2%, the viability, T/C [2] was 125% and the viability, T/C [3] was 105%. The viability, T/C [4] was 115%, the viability, T/C [5] was 96.4% and the viability, T/C [6] was 79.7%. The viability, T/C [7] was 102%, the viability, T/C [8] was 99.2% and the viability, T/C [9] was 99.2%. For the same compound, the viability, T/C [10] was 114%, the viability, T/C [11] was 94.8% and the viability, T/C [12] was 80.9%. The viability, T/C [13] was 110%, the viability, T/C [14] was 104% and the viability, T/C [15] was 107%. For the same compound, the viability, T/C [16] was 114%, the viability, T/C [17] was 105% and the viability, T/C [18] was 72.7%. For the same compound, the viability, T/C [19] was 104%, the viability, T/C [20] was 98.2% and the viability, T/C [21] was 105%. The viability, T/C [22] was 136%, the viability, T/C [23] was 102% and the viability, T/C [24] was 79.4%. It also gave a viability, T/C [25] of 114%, a viability, T/C [26] of 109% and a viability, T/C [27] of 106%. The viability, T/C [28] was 109%, the viability, T/C [29] was 101% and the viability, T/C [30] was 70.6%. It also gave a viability, T/C [31] of 93.9%, a viability, T/C [32] of 99.7% and a viability, T/C [33] of 111%. For the same compound, the viability, T/C [34] was 101%, the viability, T/C [35] was 111% and the viability, T/C [36] was 69.2%.
Compound `CC1COCCN1c1cc(C2(O)CC3CCC(C2)O3)c2cnn(-c3ccn[nH]3)c2n1` (centres undefined) + COC1C(OC(N)=O)C(O)C(Oc2ccc3c(O)c(NC(=O)c4ccc(O)c(CC=C(C)C)c4)c(=O)oc3c2C)OC1(C)C has an IC50 (second compound 0.0316 µM) of 136 nM, an IC50 (second compound 0.1 µM) of 182 nM and an IC50 (second compound 0.316 µM) of 206 nM. For the same compound, the IC50 (second compound 1 µM) was 163 nM, the IC50 (second compound 3.16 µM) was 159 nM and the IC50 (second compound 10 µM) was 176 nM. For the same compound, the viability, T/C [1] was 102%, the viability, T/C [2] was 53.5% and the viability, T/C [3] was 35.8%. The viability, T/C [4] was 20.7%, the viability, T/C [5] was 14.8% and the viability, T/C [6] was 11.1%. It also gave a viability, T/C [7] of 86.4%, a viability, T/C [8] of 64.8% and a viability, T/C [9] of 36.6%. The viability, T/C [10] was 18.9%, the viability, T/C [11] was 16.8% and the viability, T/C [12] was 11.5%. It also gave a viability, T/C [13] of 88.9%, a viability, T/C [14] of 75.6% and a viability, T/C [15] of 34%. It also gave a viability, T/C [16] of 20.4%, a viability, T/C [17] of 14% and a viability, T/C [18] of 11.6%. The viability, T/C [19] was 109%, the viability, T/C [20] was 56.5% and the viability, T/C [21] was 37.4%. It also gave a viability, T/C [22] of 27.1%, a viability, T/C [23] of 15.6% and a viability, T/C [24] of 10.2%. It also gave a viability, T/C [25] of 91.5%, a viability, T/C [26] of 61.1% and a viability, T/C [27] of 33.1%. For the same compound, the viability, T/C [28] was 20.4%, the viability, T/C [29] was 13% and the viability, T/C [30] was 11.1%. For the same compound, the viability, T/C [31] was 87.6%, the viability, T/C [32] was 60.5% and the viability, T/C [33] was 40.7%. It also gave a viability, T/C [34] of 17.9%, a viability, T/C [35] of 16.6% and a viability, T/C [36] of 10.2%.

From PubChem BioAssay AID1963849 (Molecular Pharmacology Branch, DTP, NCI, 2024)
